Measured values as given in patent publication US10758534B2 (Vertex Pharmaceuticals Incorporated, priority 2014, dated 2020).
Where two headings read alike, the source gives them in different places.

Target: T1, F508del (Homo sapiens, UniProt P13569, DEL508-508)
T1 construct: expressed in transfected cells
Test: Protocol 2: FRET membrane potential optical assay (VIPR), identification of correction compounds
Type: cell-based
In short: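 Corrector readout: membrane-potential FRET (CC2-DMPE donor, DiSBAC2(3) acceptor) on VIPR II after Cl⁻-free gluconate bath with 10 μM forskolin and 20 μM genistein. Before this, F508del-expressing NIH3T3 cells were exposed to test compound for 16 h at 37 °C without serum; 27 °C incubation served as temperature-correction control.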

[1] = Table 3, compounds of Table 1 as modulators of CFTR activity, protocol not stated
[2] = F508del CFTR modulator activity, compounds of Table 1, read-out: EC30

T1 sequence (P13569 with tags, fused parts or gaps DEL508-508): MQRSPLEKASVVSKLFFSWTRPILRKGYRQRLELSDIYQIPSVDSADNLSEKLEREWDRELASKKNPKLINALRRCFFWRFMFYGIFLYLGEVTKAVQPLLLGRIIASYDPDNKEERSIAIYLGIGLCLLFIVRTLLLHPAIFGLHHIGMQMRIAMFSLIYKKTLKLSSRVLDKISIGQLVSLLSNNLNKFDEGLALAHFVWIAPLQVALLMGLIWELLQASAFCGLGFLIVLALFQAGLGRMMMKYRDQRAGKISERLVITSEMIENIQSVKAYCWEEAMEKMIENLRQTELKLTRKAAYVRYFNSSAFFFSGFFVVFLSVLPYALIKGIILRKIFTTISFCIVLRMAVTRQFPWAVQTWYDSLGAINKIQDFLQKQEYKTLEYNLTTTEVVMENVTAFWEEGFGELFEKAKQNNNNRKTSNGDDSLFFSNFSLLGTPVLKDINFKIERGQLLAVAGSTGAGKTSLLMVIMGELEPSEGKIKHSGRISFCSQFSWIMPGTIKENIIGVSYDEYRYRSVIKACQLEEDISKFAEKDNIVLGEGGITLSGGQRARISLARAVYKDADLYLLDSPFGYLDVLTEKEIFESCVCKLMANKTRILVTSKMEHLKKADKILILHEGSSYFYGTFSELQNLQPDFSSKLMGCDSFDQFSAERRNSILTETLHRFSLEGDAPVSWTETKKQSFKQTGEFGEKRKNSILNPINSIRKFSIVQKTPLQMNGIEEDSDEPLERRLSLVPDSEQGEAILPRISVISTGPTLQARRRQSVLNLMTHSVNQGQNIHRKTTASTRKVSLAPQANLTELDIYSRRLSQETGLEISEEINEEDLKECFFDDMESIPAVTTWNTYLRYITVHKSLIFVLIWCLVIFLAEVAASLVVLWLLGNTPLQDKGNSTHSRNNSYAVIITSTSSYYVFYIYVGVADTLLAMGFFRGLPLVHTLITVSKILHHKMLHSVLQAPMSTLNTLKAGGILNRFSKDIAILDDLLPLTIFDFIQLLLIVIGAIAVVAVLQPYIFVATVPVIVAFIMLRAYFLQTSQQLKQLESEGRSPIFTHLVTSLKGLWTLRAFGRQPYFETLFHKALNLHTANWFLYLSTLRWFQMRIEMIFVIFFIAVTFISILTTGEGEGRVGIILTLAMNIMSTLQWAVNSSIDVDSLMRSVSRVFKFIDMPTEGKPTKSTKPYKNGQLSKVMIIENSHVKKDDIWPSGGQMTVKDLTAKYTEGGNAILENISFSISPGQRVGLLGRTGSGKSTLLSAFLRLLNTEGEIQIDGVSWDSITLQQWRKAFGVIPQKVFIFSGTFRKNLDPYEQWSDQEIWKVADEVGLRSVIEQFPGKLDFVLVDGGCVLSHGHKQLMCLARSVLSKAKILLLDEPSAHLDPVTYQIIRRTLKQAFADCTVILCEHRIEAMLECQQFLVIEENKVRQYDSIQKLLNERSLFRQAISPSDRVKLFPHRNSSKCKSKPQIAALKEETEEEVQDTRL

| EC30 [1] | EC30 [2] [µM] | SMILES |
| --- | --- | --- |
| ++ (“++” means between 3 uM and 10 uM) | – | COc1cccc(S(=O)(=O)NC(=O)c2ccc(C(C)(C)C)nc2-c2ccc(C)cc2)n1 [Compound 75, 6-tert-butyl-N-[(6-methoxy-2-pyridyl)sulfonyl]-2-(p-tolyl)pyridine-3-carboxamide] |
| – | < 3 | CC1CN(c2ncccc2C(=O)NS(=O)(=O)c2cccc(N3CCCC3C)n2)C(C)(C)C1 (centres unmarked) [Compound 2609, N—[[6-(2-methylpyrrolidin-1-yl)-2-pyridyl]sulfonyl]-2-(2,2,4-trimethylpyrrolidin-1-yl)pyridine-3-carboxamide] |
| – | < 3 | CC1CN(c2ncc(-c3ccccc3Cl)cc2C(=O)NS(=O)(=O)c2cccc(N)n2)C(C)(C)C1 (centres unmarked) [Compound 2312, N-[(6-amino-2-pyridyl)sulfonyl]-5-(2-chlorophenyl)-2-(2,2,4-trimethylpyrrolidin-1-yl)pyridine-3-carboxamide] |
| – | < 3 | CC1CN(c2ncccc2C(=O)NS(=O)(=O)c2cccc(N3CCCC3C(F)(F)F)n2)C(C)(C)C1 (centres unmarked) [Compound 2055, N—[[6-[2-(trifluoromethyl)pyrrolidin-1-yl]-2-pyridyl]sulfonyl]-2-(2,2,4-trimethylpyrrolidin-1-yl)pyridine-3-carboxamide] |
| – | < 3 | COc1ccc(Cl)cc1Oc1cccc(S(=O)(=O)NC(=O)c2cccnc2N2CC(C)CC2(C)C)n1 (centres unmarked) [Compound 2503, N—[[6-(5-chloro-2-methoxy-phenoxy)-2-pyridyl]sulfonyl]-2-(2,2,4-trimethylpyrrolidin-1-yl)pyridine-3-carboxamide] |
| +++ (“+++” means <3 uM) | – | Cc1ccc(-c2ccc(C(=O)NS(=O)(=O)c3cccc(N)n3)c(N3CC(C)CC3(C)C)n2)cc1 (centres unmarked) [Compound 456, N-[(6-amino-2-pyridyl)sulfonyl]-6-(p-tolyl)-2-(2,2,4-trimethylpyrrolidin-1-yl)pyridine-3-carboxamide] |
| – | < 3 | CC1CN(c2ncccc2C(=O)NS(=O)(=O)c2cccc(Oc3ccccc3)n2)C(C)(C)C1 (centres unmarked) [Compound 2509, N-[(6-phenoxy-2-pyridyl)sulfonyl]-2-(2,2,4-trimethylpyrrolidin-1-yl)pyridine-3-carboxamide] |
| – | < 3 | CC1CN(c2ncccc2C(=O)NS(=O)(=O)c2cccc(Oc3cccc(C(F)(F)F)c3)n2)C(C)(C)C1 (centres unmarked) [Compound 2718] |
| – | < 3 | CCCOc1cccc(S(=O)(=O)NC(=O)c2cccnc2N2CC(C)CC2(C)C)n1 (centres unmarked) [Compound 2528, N-[(6-propoxy-2-pyridyl)sulfonyl]-2-(2,2,4-trimethylpyrrolidin-1-yl)pyridine-3-carboxamide] |
| – | < 3 | CC1CN(c2ncccc2C(=O)NS(=O)(=O)c2cccc(NCc3cccc(C(F)(F)F)n3)n2)C(C)(C)C1 (centres unmarked) [Compound 2365, N—[[6-[[6-(trifluoromethyl)-2-pyridyl]methylamino]-2-pyridyl]sulfonyl]-2-(2,2,4-trimethylpyrrolidin-1-yl)pyridine-3-carboxamide] |
| – | < 3 | COc1cccc(F)c1-c1ccc(C(=O)NS(=O)(=O)c2cccnc2N)c(N2C[C@@H](C)CC2(C)C)n1 [Compound 2033, N-[(2-amino-3-pyridyl)sulfonyl]-6-(2-fluoro-6-methoxy-phenyl)-2-[(4S)-2,2,4-trimethylpyrrolidin-1-yl]pyridine-3-carboxamide] |
| +++ (“+++” means <3 uM) | – | Cc1cc(C)c(Cn2c(C(=O)NS(=O)(=O)c3ccccc3)cc3cccc(C)c32)c(C)c1 [Compound 354, N-(benzenesulfonyl)-7-methyl-1-[(2,4,6-trimethylphenyl)methyl]indole-2-carboxamide] |
| +++ (“+++” means <3 uM) | – | Cc1cc(C)c(CN2Cc3ccccc3C2C(=O)NS(=O)(=O)c2cccc(N)n2)c(C)c1 (centres unmarked) [Compound 73, N-[(6-amino-2-pyridyl)sulfonyl]-2-[(2,4,6-trimethylphenyl)methyl]isoindoline-1-carboxamide] |
| +++ (“+++” means <3 uM) | – | Cc1cc(C)c(Oc2nc(C(C)(C)C)ccc2C(=O)NS(=O)(=O)c2cccc(=O)[nH]2)c(C)c1 [Compound 305, 6-tert-butyl-N-[(6-oxo-1H-pyridin-2-yl)sulfonyl]-2-(2,4,6-trimethylphenoxy)pyridine-3-carboxamide] |
| ++ (“++” means between 3 uM and 10 uM) | – | Cc1cc(C)c(CN2Cc3ccccc3C2C(=O)NS(=O)(=O)c2cccc(=O)[nH]2)c(C)c1 (centres unmarked) [Compound 319, N-[(6-oxo-1H-pyridin-2-yl)sulfonyl]-2-[(2,4,6-trimethylphenyl)methyl]isoindoline-1-carboxamide] |
| – | < 3 | C[C@@H]1CN(c2nc(-c3cncc4ccccc34)ccc2C(=O)NS(=O)(=O)c2cccnc2N)C(C)(C)C1 [Compound 2418, N-[(2-amino-3-pyridyl)sulfonyl]-6-(4-isoquinolyl)-2-[(4S)-2,2,4-trimethylpyrrolidin-1-yl]pyridine-3-carboxamide] |
| – | 3 to 10 | C[C@@H]1CN(c2nc(-c3cc(F)ccc3F)ccc2C(=O)NS(=O)(=O)N2CC[C@H](N)C2)C(C)(C)C1 [Compound 2489, N-[(3S)-3-aminopyrrolidin-1-yl]sulfonyl-6-(2,5-difluorophenyl)-2-[(4S)-2,2,4-trimethylpyrrolidin-1-yl]pyridine-3-carboxamide] |

Continued, compound first:

| SMILES | EC30 [1] | EC30 [2] [µM] |
| --- | --- | --- |
| COc1ncc(-c2ccc(C(=O)NS(=O)(=O)c3cccnc3N)c(N3C[C@@H](C)CC3(C)C)n2)cc1C [Compound 2564, N-[(2-amino-3-pyridyl)sulfonyl]-6-(6-methoxy-5-methyl-3-pyridyl)-2-[(4S)-2,2,4-trimethylpyrrolidin-1-yl]pyridine-3-carboxamide] | – | < 3 |
| CC(C)COc1cc(F)cc(-c2ccc(C(=O)NS(=O)(=O)c3cccc(N)n3)c(N3CC(C(C)(C)C)CC3(C)C)n2)c1 (centres unmarked) [Compound 2538, N-[(6-amino-2-pyridyl)sulfonyl]-2-(4-tert-butyl-2,2-dimethyl-pyrrolidin-1-yl)-6-(3-fluoro-5-isobutoxy-phenyl)pyridine-3-carboxamide] | – | < 3 |
| CC(C)COc1cc(F)cc(-c2ccc(C(=O)NS(=O)(=O)c3cccc(N)n3)c(N3CC(C)CC3(C)C)n2)c1 (centres unmarked) [Compound 555, N-[(6-amino-2-pyridyl)sulfonyl]-6-(3-fluoro-5-isobutoxy-phenyl)-2-(2,2,4-trimethylpyrrolidin-1-yl)pyridine-3-carboxamide] | +++ (“+++” means <3 uM) | – |
| COC1(C)CCN(c2nc(-c3cc(F)cc(OCC(C)C)c3)ccc2C(=O)NS(=O)(=O)c2ccn[nH]2)CC1 [Compound 774, 6-(3-fluoro-5-isobutoxy-phenyl)-2-(4-methoxy-4-methyl-1-piperidyl)-N-(1H-pyrazol-5-ylsulfonyl)pyridine-3-carboxamide] | +++ (“+++” means <3 uM) | – |
| Cc1cccc(C)c1Cn1nc(-c2ccccc2C#N)cc1C(=O)NS(=O)(=O)c1ccccc1 [Compound 99, N-(benzenesulfonyl)-5-(2-cyanophenyl)-2-[(2,6-dimethylphenyl)methyl]pyrazole-3-carboxamide] | +++ (“+++” means <3 uM) | – |
| Cc1cccc(C)c1Cn1nc(C(C)(C)C)cc1C(=O)NS(=O)(=O)c1cccc2[nH]ncc12 [Compound 86, 5-tert-butyl-2-[(2,6-dimethylphenyl)methyl]-N-(1H-indazol-4-ylsulfonyl)pyrazole-3-carboxamide] | ++ (“++” means between 3 uM and 10 uM) | – |
| Cc1cc(C)c(Oc2nc(N3CCCCC3)ccc2C(=O)NS(=O)(=O)c2cccc(N)n2)c(C)c1 [Compound 785, N-[(6-amino-2-pyridyl)sulfonyl]-6-(1-piperidyl)-2-(2,4,6-trimethylphenoxy)pyridine-3-carboxamide] | +++ (“+++” means <3 uM) | – |
| CC1CN(c2ncccc2C(=O)NS(=O)(=O)c2cccc(N3CCC(Cc4ccccc4)C3)n2)C(C)(C)C1 (centres unmarked) [Compound 2123, N—[[6-(3-benzylpyrrolidin-1-yl)-2-pyridyl]sulfonyl]-2-(2,2,4-trimethylpyrrolidin-1-yl)pyridine-3-carboxamide] | – | < 3 |
| CCOc1ncccc1-c1ccc(C(=O)NS(=O)(=O)c2cccc(N)n2)c(Oc2c(C)cc(C)cc2C)n1 [Compound 718, N-[(6-amino-2-pyridyl)sulfonyl]-6-(2-ethoxy-3-pyridyl)-2-(2,4,6-trimethylphenoxy)pyridine-3-carboxamide] | +++ (“+++” means <3 uM) | – |
| CCOc1cc(C)cc(-c2ccc(C(=O)NS(=O)(=O)c3cc[nH]n3)c(N3C[C@@H](C)CC3(C)C)n2)n1 [Compound 2487, 6-(6-ethoxy-4-methyl-2-pyridyl)-N-(1H-pyrazol-3-ylsulfonyl)-2-[(4S)-2,2,4-trimethylpyrrolidin-1-yl]pyridine-3-carboxamide] | – | < 3 |
| Cc1cc(C)c(Cn2nc(C(C)(C)C)nc2C(=O)NS(=O)(=O)c2cccc(N)c2)c(C)c1 [Compound 261, N-(3-aminophenyl)sulfonyl-5-tert-butyl-2-[(2,4,6-trimethylphenyl)methyl]-1,2,4-triazole-3-carboxamide] | +++ (“+++” means <3 uM) | – |
| COc1ccc(Nc2cccc(S(=O)(=O)NC(=O)c3cccnc3N3CC(C)CC3(C)C)n2)cc1OC (centres unmarked) [Compound 2041, N—[[6-(3,4-dimethoxyanilino)-2-pyridyl]sulfonyl]-2-(2,2,4-trimethylpyrrolidin-1-yl)pyridine-3-carboxamide] | – | < 3 |
| CCOCCOc1ncc(-c2ccc(C(=O)NS(=O)(=O)c3cccnc3N)c(N3C[C@@H](C)CC3(C)C)n2)cc1C [Compound 2497, N-[(2-amino-3-pyridyl)sulfonyl]-6-[6-(2-ethoxyethoxy)-5-methyl-3-pyridyl]-2-[(4S)-2,2,4-trimethylpyrrolidin-1-yl]pyridine-3-carboxamide] | – | < 3 |
| CCOc1cccc(S(=O)(=O)NC(=O)c2cccnc2N2CC(C)CC2(C)C)n1 (centres unmarked) [Compound 2617, N-[(6-ethoxy-2-pyridyl)sulfonyl]-2-(2,2,4-trimethylpyrrolidin-1-yl)pyridine-3-carboxamide] | – | 3 to 10 |
| COc1ccc(COc2cccc(S(=O)(=O)NC(=O)c3cccnc3N3CC(C)CC3(C)C)n2)cc1 (centres unmarked) [Compound 2428, N—[[6-[(4-methoxyphenyl)methoxy]-2-pyridyl]sulfonyl]-2-(2,2,4-trimethylpyrrolidin-1-yl)pyridine-3-carboxamide] | – | < 3 |
